Assay results taken from patent publication US20220280579A1, “Formulations for Prevention or Reduction of C. Difficile Infections” (priority 2019, published 2022).
Several values for one entry are separate records, joined by “and”; a condition that tells them apart may be missing. Equal values may be shown once.

Tested on: CD strain 630
Test: Example 7: Holloway model of CDI, GlcNAc or glucosamine in drinking water
Conditions: for Ethanol resistant CFU, CFU/g faeces: individual mice

| Water consumption: Daily consumption per mouse (20 mg/ml in drinking water) [mL] | Water consumption: Daily consumption per mouse (50 mg/ml in drinking water) [mL] | Water consumption: Daily consumption per mouse (100 mg/ml in drinking water) [mL] | Compound | CD colonisation (mouse, in vivo) | CD infections (CDI) in mice (mouse, in vivo) | Ethanol resistant CFU, CFU/g faeces (20 mg/ml in drinking water, hydrochloride) | Ethanol resistant CFU, CFU/g faeces (50 mg/ml in drinking water) [CFU/g faeces] | Ethanol resistant CFU, CFU/g faeces (100 mg/ml in drinking water, hydrochloride) | CD colonisation (levels as low as 20 mg/ml in drinking water, summary in words) | CD infections (CDI) in mice (water containing 20 mg/ml, conclusion in words) |
| --- | --- | --- | --- | --- | --- | --- | --- | --- | --- | --- |
|  |  |  | CC(=O)N[C@H]1C(O)O[C@H](CO)[C@@H](O)[C@@H]1O (stereo partly shown) [GlcNAc, N-acetyl-glucosamine] | could suppress CD colonisation | prevented CD infections |  |  |  |  |  |
| 4.2 | 2.8 | 1 | Cl.N[C@H]1C(O)O[C@H](CO)[C@@H](O)[C@@H]1O (stereo partly shown) [Glucosamine, Glucosamine hydrochloride] |  |  | 0.00E+00 CFU/g faeces (5×) and 1.90E+06 CFU/g faeces | 0.00E+00 | 0.00E+00 CFU/g faeces (4×) and 1.70E+05 CFU/g faeces and 8.00E+04 CFU/g faeces | could suppress CD colonisation | prevented CD infections |
